Columns and labels:
[1] = test system: normal mammary epithelial cells; assay: effects of estrogen and tamoxifen on purified normal mammary epithelial cells; format: cell-based, human; conditions: purified normal breast cells
Method: Cell viability was assessed using exclusion of Trypan blue staining. Proliferation of cells in culture was assessed by measuring tritiated thymidine (3HTdR) incorporation into DNA and using the MTS assay. For ^3HTdR-labelling, purified cells were seeded into the wells of 24-well dishes. The medium was subsequently changed for 0.5 ml of ^3HTdR-supplemented thymidine-free medium (RPMI, 2 mM L-glutamine, 100U/ml penicillin, 0.1 mg/ml streptomycin plus dialysed 2% FCS). The amount of incorporated ^3HTdR in the cultures was measured by scintillation counting following precipitation with trichloroacetic acid. MTS assays were carried out using the Cell Titre 96 (Promega, UK), according to manufacturer's protocols.
(§1) 1×10^5 cells were plated into the wells of 96 well plates. […] Total and viable (Trypan blue) cell counts were measured during the time course of the experiment.
(§2) Normal cells were studied at several time points whereas due to limited number of cells, studies were limited to 2 time points in tumors. Trypan Blue staining determined viable cell numbers.

estrogen receptor (ER) [2] = assay: adenoERreporter assay in breast cancer cells from metastatic effusions (pleural, ascites); format: cell-based, human
From the text: In the case of metastatic fluid, 100 mls of the fluid was sent for cytological examination and staining for ER and PR. The remaining fluid was centrifuged and the cell pellets were pooled. This was re-suspended in RPMI-1640/1% FCS and tumour cell numbers estimated as before. If the cells were in clusters, trypsin/EDTA (Sigma, Poole, UK) was used to obtain single cell suspensions before filtering to remove any debris. The remaining steps were as above. The purified cells were either infected immediately or cultured for a few days prior to infection.
(§3) For infections of primary cells, 6-10,000 cells/well were allowed and exposed to the given quantity of virus, after which they were pelleted and re-supended in 200 ul of PR free/5% DSS medium containing the appropriate ligands prior to plating into 96-well plates.
(§4) Reporter Gene Assay 48 hours after virus infection, 20 ul of 20% Triton in PBS was added to each well and incubated at RT for 10 minutes. […] (CRPG) made up in TBS at a concentration of 8 mg/ml was then added to the wells and the plate was incubated, foil-wrapped, at 37° C. until a colour change was observed. Plate readings were taken at a wavelength of 547 nm.
(§5) We purified breast cancer cells from metastatic fluid, both pleural and ascites as well as fine needle aspirates (FNA) from recurrent breast cancer. These cells were counted and infected with adenoERreporter and after 48 hours a β-gal assay was performed. We have infected 9 metastatic effusions including 2 cell lines of passage number two, derived from pleural effusions and 4 FNAs. Tables 3 and 4 show the treatment history and characteristics of the patients that provided the samples. Where possible, some of the fluid was sent for cytology and ER staining.

[3] = test system: malignant mammary epithelial cells; assay: effects of estradiol and tamoxifen on survival of purified malignant mammary epithelial cells (Trypan blue counts); format: cell-based, human; conditions: for effect on cell death: ER positive purified breast cancer cells, E2 10 nM, OHT 100 nM
Method: as §1, §2

estrogen receptor (ER) [4] = assay: viral ER reporter in ER negative breast cancer cell lines; format: cell-based, human; conditions: virus 100:1
Method: FIG. 3: Reporter activity in variety of estrogen receptor alpha positive (MCF-7, T47-D, ZR75-1, BT474) and negative (Cal-51, SkBr3, and MDA-MB231 cell lines). For each figure, the order is as follows: (1) refers to the no ligand control.
For adenovirus infections, cell lines were plated in 96 wells at the given density in phenol red free DMEM supplemented with 5% double-stripped serum (PR/5% DSS). The following day cells were exposed to the given quantity of plaque forming units per cell (multiplicity of infection, MOI) in PR/SF medium. This was incubated at 37° C. for 1 hour after which the media was replaced by PR free/5% DSS containing the ligands.
as §4
We went on to test the virus reporter in a variety of ER positive and ER negative cell lines. Again 0.5×10^5 cells were infected with 100 virus per cell (100:1). Using the GFP virus it was evident that the infectability of the cell lines was variable. […]

estrogen receptor (ER) [5] = assay: adeno-reporter assay in purified primary breast cancer cells (tumour, lymph node); format: cell-based, human; conditions: for Reporter response: E2 10 nM, OHT 100 nM, ICI 100 nM, 48 h
Method: The product was then filtered through a nylon mesh (Lockertex Ltd, Merseyside, UK) and the filtrate centrifuged at 2000 rpm, at room temperature (RT). The pellet was re-suspended in 9 mls of RPMI/1% FCS and a cell count performed to estimate the number of tumour cells in the preparation. […] A count of viable tumour cells was performed using trypan blue (Sigma, Poole, UK) prior to seeding in breast complete medium (DMEM/F-12 containing, 15 mM Hepes, 2 mM L-glutamine, 100U/ml penicillin, O. 1 mg/ml streptomycin, 50 U/ml polymixin B, 2.5 μg/ml amphotericin B, 5 μg/ml insulin, 10 μg/ml apo-transferrin, 100 μM ethanolamine, 1 μg/ml hydrocortisone, 10 ng/ml EGF) plus 5% FCS) for culture. The cells were used for experiments on day 3 after the initial plating.
as §3
Cells were incubated for 48 hours following infections unless stated otherwise.
as §4
We have used the adeno-reporter to infect purified cells from breast cancer and lymph nodes of 19 patients. The reporter assay was performed in a blinded fashion since the IHC report of ER status was not available until after the experiments were complete. Viral infections were performed in suspension so as not to loose cancer cells since they were only loosely adherent. Following exposure to the virus for an hour, the cells were washed to remove excess virus and then plated and incubated in PR free/5% DSS supplemented with the given ligands for 48 hours.

estrogen receptor (ER) [6] = assay: adenoERreporter assay in fine needle aspirates (FNA) from recurrent breast cancer; format: cell-based, human
Method: Cells obtained from FNAs were collected in PBS (Sigma, Poole, UK) containing 2% FCS. If the aspirate was bloody, erythrocyte lysis buffer (0.155M NH4Cl, 10 mM KHCO3, 0.1 mM EDTA, pH 7.4) was used to lyse the red blood cells and after a further wash with PBS, the cells were re-suspended in culture media for counting and immediate infections.
as §3, §4
as §5, with “staining. However, this was not always feasible due to the variability of cancer cells in the metastatic fluid.” for “staining.”

ER positive tumours = conditions: cited from earlier work
[7] = Table 2 patient 5 Ln, ER+/PR−, Pre
[8] = Table 2 patient 8, ER+++/PR−, Post
[9] = Table 2 patient 12 Tu, Anaplastic small cell carcinoma, ER−/PR−
[10] = Table 2 patient 13, ER−/PR−, Post

Compound | effect on cell death [3] | Reporter response (estrogen receptor (ER) [5]; [7]) | Reporter response (estrogen receptor (ER) [5]; [8]) | Reporter response (estrogen receptor (ER) [5]; Table 2 patient 12 Ln) | Reporter response (estrogen receptor (ER) [5]; [9]) | Reporter response (estrogen receptor (ER) [5]; [10]) | Reporter response (estrogen receptor (ER) [5]; Table 2 patient 15 Ln) | Reporter response (estrogen receptor (ER) [5]; Table 2 patient 15 Tu, ER−/PR−) | Reporter response (estrogen receptor (ER) [5]; Table 2 patient 16 Ln) | Reporter response (estrogen receptor (ER) [5]; Table 2 patient 16 Tu, Post) | Reporter response (estrogen receptor (ER) [5]; Table 2 patient 17) | Reporter response (estrogen receptor (ER) [5]; Table 2 patient 18, ER−/PR−) | other results
C[C@]12CC[C@@H]3c4ccc(O)cc4CC[C@H]3[C@@H]1CC[C@@H]2O [E2, 17β-estradiol] | reduction in cell death | ns | ns | ns | ns | ns | ns | ns | ns | ns | ns | ns | expression of estrogen-regulated genes after estrogen exposure [1]: expressing both PR and PS2; stimulatory effect on the reporter above the background activity (estrogen receptor (ER) [2]; ER positive relapsed patients, compared with primary breast tumour): less of a stimulatory effect; Reporter Activity (estrogen receptor (ER) [2]; Table 3 patient 1) T2G2NxM0, PE, primary ER++/PR−, prior Tamoxifen 3y, Lentaron 5m): Ns; effect of estrogen on cells ([3]; ER negative breast cancer cells): no effect; effect on ERE driven β-gal reporter / baseline activity (estrogen receptor (ER) [4]): no appreciable effect; Reporter Activity (estrogen receptor (ER) [6]; Table 4 patient 1) T3G2N1M0, FNA ER−/PR−, no prior endocrine treatment): Ns
CC/C(=C(\c1ccccc1)c1ccc(OCCN(C)C)cc1)c1ccccc1 [tamoxifen] | reversed | – | – | – | – | – | – | – | – | – | – | – | effect on proliferation [1]: decrease; patients with ERα-positive disease that do not respond (ER positive tumours; breast cancer patients, adjuvant/metastatic treatment): approximately 30%; patients with ER positive tumours that fail to respond (ER positive tumours; primary endocrine therapy (Gazet et al 1987)): ~50%; increase in reporter activity in the presence of tamoxifen (estrogen receptor (ER) [2]; patient 1 (Table 3)): approximately 10 fold; response of cells to tamoxifen (estrogen receptor (ER) [2]; patient 3, table 3, previous tamoxifen for one year): continued to respond to tamoxifen; effect on reporter compared with E2 (estrogen receptor (ER) [2]; patient samples 1, 5 and 6 (Table 3) and patient 6 (Table 4), relapsed after tamoxifen): an effect at least equivalent to E2; cell numbers after tamoxifen treatment compared to estradiol treatment ([3]; 7 tumors studied, responders all ER positive, viable counts by Trypan Blue): Four out of the 7 tumors studied showed significant reduction in cell numbers; effect on reporter activity across patient samples (estrogen receptor (ER) [5]; purified cells from breast cancer and lymph nodes of 19 patients): inhibitory in most cases but did show some agonistic activity in a proportion of patients
4-hydroxytamoxifen [4-OHT] | – | ns | ns | ns | ns | ns | ns | ns | ns | ns | ns | ns | effect on ER activity (estrogen receptor (ER) [2]; patient 4 (table 3), ascites, no previous treatment): inhibitory; Reporter Assay: inhibition (estrogen receptor (ER) [6]; FNA summary table, N = 1, IHC ER−/PR−, ?Responder): OHT/ICI inhibit by × 1.8
